For assay [1], the target named is T1, Neurotensin receptor type 2 (Rattus norvegicus, UniProt Q63384).
T1 sequence (Q63384 whole entry): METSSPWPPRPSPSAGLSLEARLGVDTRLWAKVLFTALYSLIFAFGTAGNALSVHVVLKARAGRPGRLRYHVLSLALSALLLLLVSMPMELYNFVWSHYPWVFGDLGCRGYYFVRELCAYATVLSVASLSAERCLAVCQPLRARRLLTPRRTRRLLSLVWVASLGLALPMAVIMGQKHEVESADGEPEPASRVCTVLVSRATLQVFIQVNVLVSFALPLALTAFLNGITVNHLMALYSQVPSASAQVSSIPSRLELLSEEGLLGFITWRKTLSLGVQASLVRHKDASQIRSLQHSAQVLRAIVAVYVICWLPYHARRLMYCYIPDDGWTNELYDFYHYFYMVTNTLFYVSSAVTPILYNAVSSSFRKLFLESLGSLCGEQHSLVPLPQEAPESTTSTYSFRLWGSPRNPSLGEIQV
In words: Agonist activity at rat NTS2 overexpressed in CHO-k1 cells assessed as calcium mobilization by FLIPR assay. In kind it is functional, cell-based.

Assay [2] deals with T2, Neurotensin receptor type 2 (Rattus norvegicus) (UniProt Q63384).
T2 sequence (whole entry): T1 sequence (Q63384 whole entry)
Kind of assay: Agonist activity at rat NTS2 overexpressed in CHO-k1 cells assessed as calcium mobilization by FLIPR assay relative to SR142948a. In kind it is functional, cell-based.

Assay [3] addresses Neurotensin receptor type 1 (Rattus norvegicus, UniProt P20789). Kind of assay: Displacement of [I125]neurotensin from rat NTS1 overexpressed in CHO-k1 cells by competitive binding Assay. The format is cell-based.
The target in assay [4] is T1, Neurotensin receptor type 2. Kind of assay: Displacement of [I125]neurotensin from rat NTS2 overexpressed in CHO-k1 cells by competitive binding Assay. The format is cell-based.
The target in assay [5] is Neurotensin receptor type 1 (Rattus norvegicus) (UniProt P20789). In words: Antagonist activity at rat NTS1 overexpressed in CHO-k1 cells assessed as blockade of neurotensin-mediated calcium mobilization after 15 mins by FLIPR assay. In kind it is functional, cell-based. Background: Calcium assays in cells follow changes in intracellular calcium, usually with a dye or a luminescent sensor.
Chain of Neurotensin receptor type 1 (Rattus norvegicus) (P20789 whole entry): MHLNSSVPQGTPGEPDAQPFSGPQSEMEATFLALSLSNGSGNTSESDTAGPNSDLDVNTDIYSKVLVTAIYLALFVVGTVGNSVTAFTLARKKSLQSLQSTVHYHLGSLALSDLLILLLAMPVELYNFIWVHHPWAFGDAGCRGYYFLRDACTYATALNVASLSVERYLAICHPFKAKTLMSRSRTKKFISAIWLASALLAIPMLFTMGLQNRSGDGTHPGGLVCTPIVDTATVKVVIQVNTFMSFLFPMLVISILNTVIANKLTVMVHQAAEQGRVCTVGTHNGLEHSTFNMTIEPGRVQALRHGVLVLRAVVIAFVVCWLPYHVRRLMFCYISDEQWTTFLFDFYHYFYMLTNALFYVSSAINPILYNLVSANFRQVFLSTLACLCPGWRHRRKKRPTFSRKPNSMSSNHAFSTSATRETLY

Active and inactive are the calls of the source. The calls are words filed in the database; no cut-off is given here.

The values that follow come from ChEMBL document CHEMBL3400069, “The amide linker in nonpeptide neurotensin receptor ligands plays a key role in calcium signaling at the neurotensin receptor type 2” (Bioorg Med Chem Lett, 2015).

Chain of Neurotensin receptor type 1 (P20789 whole entry): as above

What is called EC50 is the concentration that produces a half-maximal response. By Emax is commonly meant the size of the effect at its maximum, as opposed to the concentration needed. A word on the Ki: it is the dissociation constant of the complex between target and ligand, obtained from inhibition or displacement. Low values mean higher affinity, high ones lower affinity. Turning to `COc1ccccc1-c1cc(NC(=O)C2(C(=O)O)CCCCC2)nn1-c1ccc(F)cc1`, in assay [1] (read-out: EC50), the EC50 was 951 nM. For the same compound, in assay [2], the maximal response (Emax) worked out at 13%. Also, the Ki was more than 25000 nM in assay [3] and 6340 nM in assay [4]. The Ke result in assay [5] is “inactive”.

In the case of `COc1cccc(OC)c1-c1cc(NC(=O)C2(C(=O)O)CCCCC2)nn1-c1cccc2ccccc12`, the 50% effective concentration (EC50) result in assay [1] (cho-k1) is “Not Active”. Besides, the inhibitory constant (Ki) in assay [3] amounted to 10200 nM; in assay [4] it was 128 nM.

Take `COc1ccccc1-c1cc(C(=O)NC2(C(=O)O)CCCCC2)nn1-c1ccc(F)cc1`: in assay [3], the Ki was more than 25000 nM.

In assay [3], `COc1cccc(OC)c1-c1cc(C(=O)NC2(C(=O)O)CCCCC2)nn1-c1cccc2ccccc12` showed an inhibition constant (Ki) of 1210 nM.

For `COc1cccc(OC)c1-c1cc(NC(=O)C2(C(=O)O)CCCCC2)nn1-c1ccnc2cc(Cl)ccc12`, the EC50 result in assay [1] (cho-k1) was “Not Active”. Besides, the Ki in assay [3] was 7180 nM; in assay [4], 140 nM.

With `COc1cccc(OC)c1-c1cc(NC(=O)C2(C(=O)O)CCCCC2)nn1-c1ccc(F)cc1`, the half-maximal effective concentration (EC50) in assay [1] (read-out: EC50) turned out to be 55 nM. In addition, in assay [2], the Emax turned out to be 10%. Besides, the results for the Ki in assay [3] and in assay [4] were more than 25000 nM and 271 nM, respectively. The Ke result in assay [5] was “inactive”.

As for `COc1cccc(OC)c1-c1cc(CN[C@H](C(=O)O)C2CCCCC2)nn1-c1ccnc2cc(Cl)ccc12`, the half-maximal effective concentration (EC50) entry in assay [1] (cho-k1) was “Not Active”. Moreover, the inhibitory constant (Ki) in assay [3] and in assay [4] was more than 10000 nM in each case.

`COc1cccc(OC)c1-c1cc(C(=O)NC2(C(=O)O)CCCCC2)nn1-c1ccnc2cc(Cl)ccc12` had an inhibitory constant (Ki) in assay [3] of 177 nM.
